In the assay the target is T1, recombinant human Estrogen Receptor alpha ligand binding domain, residues 307-554 (ER alpha-LBD (GST)) (Homo sapiens, UniProt P03372).
T1 construct: made in house
T1 sequence (P03372 307-554): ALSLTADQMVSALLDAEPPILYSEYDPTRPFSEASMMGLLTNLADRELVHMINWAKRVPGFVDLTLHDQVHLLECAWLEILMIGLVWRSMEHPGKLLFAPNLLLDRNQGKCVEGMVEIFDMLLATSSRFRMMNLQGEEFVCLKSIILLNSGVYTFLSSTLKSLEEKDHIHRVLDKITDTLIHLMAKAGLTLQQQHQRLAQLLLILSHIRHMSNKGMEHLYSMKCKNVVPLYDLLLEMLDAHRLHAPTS
Put plainly: ERα binding assay (LanthaScreen TR-FRET competition). The note with it: TR-FRET competition with Fluormone ES2 tracer, 4 hours at room temperature; single experiment or average of two or more. On the technique in general: In TR-FRET formats the signal depends on donor and acceptor labels being close together.

Counter-ions that a name gives are not always drawn.

Regarding `Cc1ncsc1-c1ccc(CNC(=O)[C@@H]2C[C@@H](OC(=O)[C@H](C)NC(=O)[C@@H](N)C(C)C)CN2C(=O)[C@@H](NC(=O)COCCOCCOCCOc2cc(F)c([C@@H]3c4[nH]c5ccccc5c4C[C@@H](C)N3CC(C)(C)F)c(F)c2)C(C)(C)C)cc1` [Example 100, (3R,5S)-1-((S)-2-(2-(2-(2-(2-(3,5-Difluoro-4-((1R,3R)-2-(2-fluoro-2-methylpropyl)-3-methyl-2,3,4,9-tetrahydro-1H-pyrido[3,4-b]indol-1-yl)phenoxy)ethoxy)ethoxy)ethoxy)acetamido)-3,3-dimethylbutanoyl)-5-((4-(4-methylthiazol-5-yl)benzyl)carbamoyl)pyrrolidin-3-yl L-valyl-L-alaninate Formate], the IC50 (commonly the concentration that gives 50% inhibition) is 0.8 nM.

Take `Cc1ncsc1-c1ccc(CNC(=O)[C@@H]2C[C@@H](O)CN2C(=O)[C@@H](NC(=O)COCCOCCOCC(=O)Nc2ccc([C@@H]3c4[nH]c5ccccc5c4C[C@@H](C)N3CC(C)(C)F)cc2)C(C)(C)C)cc1` [Example 57, (2S,4R)-1-((S)-2-(tert-butyl)-14-((4-((1R,3R)-2-(2-fluoro-2-methylpropyl)-3-methyl-2,3,4,9-tetrahydro-1H-pyrido[3,4-b]indol-1-yl)phenyl)amino)-4,14-dioxo-6,9,12-trioxa-3-azatetradecanoyl)-4-hydroxy-N-(4-(4-methylthiazol-5-yl)benzyl)pyrrolidine-2-carboxamide, Trifluoroacetic Acid]: the half-inhibitory concentration (IC50) turned out to be 8.8 nM.

Regarding `Cc1ncsc1-c1ccc(CNC(=O)[C@@H]2C[C@@H](O)CN2C(=O)[C@@H](NC(=O)COCCOCCOCCOc2cc(F)c([C@@H]3c4[nH]c5ccccc5c4C[C@@H](C)N3CC(F)(F)F)c(F)c2)C(C)(C)C)cc1` [Example 95, (2S,4R)-1-((S)-2-(tert-Butyl)-14-(3,5-difluoro-4-((1R,3R)-3-methyl-2-(2,2,2-trifluoroethyl)-2,3,4,9-tetrahydro-1H-pyrido[3,4-b]indol-1-yl)phenoxy)-4-oxo-6,9,12-trioxa-3-azatetradecanoyl)-4-hydroxy-N-(4-(4-methylthiazol-5-yl)benzyl)pyrrolidine-2-carboxamide], the IC50 was 1.2 nM.

`Cc1ncsc1-c1ccc(CNC(=O)[C@@H]2C[C@@H](O)CN2C(=O)[C@@H](NC(=O)COCCCOCCOc2cc(F)c([C@@H]3c4[nH]c5ccccc5c4C[C@@H](C)N3CC(F)(F)F)c(F)c2)C(C)(C)C)cc1` [Example 94, (2S,4R)-1-((S)-2-(2-(3-(2-(3,5-Difluoro-4-((1R,3R)-3-methyl-2-(2,2,2-trifluoroethyl)-2,3,4,9-tetrahydro-1H-pyrido[3,4-b]indol-1-yl)phenoxy)ethoxy)propoxy)acetamido)-3,3-dimethylbutanoyl)-4-hydroxy-N-(4-(4-methylthiazol-5-yl)benzyl)pyrrolidine-2-carboxamide]: the IC50 amounted to 0.9 nM.

With `Cc1ncsc1-c1ccc(CNC(=O)[C@@H]2C[C@@H](O)CN2C(=O)[C@@H](NC(=O)COCCOCCCCCOc2cc(F)c([C@@H]3c4[nH]c5ccccc5c4C[C@@H](C)N3CC(C)(C)F)c(F)c2)C(C)(C)C)cc1` [Example 97, (2S,4R)-1-((S)-2-(2-(2-((5-(3,5-Difluoro-4-((1R,3R)-2-(2-fluoro-2-methylpropyl)-3-methyl-2,3,4,9-tetrahydro-1H-pyrido[3,4-b]indol-1-yl)phenoxy)pentyl)oxy)ethoxy)acetamido)-3,3-dimethylbutanoyl)-4-hydroxy-N-(4-(4-methylthiazol-5-yl)benzyl)pyrrolidine-2-carboxamide], the half-inhibitory concentration (IC50) turned out to be 0.5 nM.

As for `Cc1ncsc1-c1ccc([C@H](C)NC(=O)[C@@H]2C[C@@H](O)CN2C(=O)[C@@H](NC(=O)COCCOCCOCCOc2cc(F)c([C@@H]3c4[nH]c5ccccc5c4C[C@@H](C)N3CC(C)(C)F)c(F)c2)C(C)(C)C)cc1` [Example 3, (2S,4R)-1-((S)-2-(tert-Butyl)-14-(3,5-difluoro-4-((1R,3R)-2-(2-fluoro-2-methylpropyl)-3-methyl-2,3,4,9-tetrahydro-1H-pyrido[3,4-b]indol-1-yl)phenoxy)-4-oxo-6,9,12-trioxa-3-azatetradecanoyl)-4-hydroxy-N—((S)-1-(4-(4-methylthiazol-5-yl)phenyl)ethyl)pyrrolidine-2-carboxamide], the IC50 came to 0.8 nM.

Take `Cc1ncsc1-c1ccc(CNC(=O)[C@@H]2C[C@@H](O)CN2C(=O)[C@@H](NC(=O)COCCO[C@@H](C)[C@H](C)OCCOc2cc(F)c([C@@H]3c4[nH]c5ccccc5c4C[C@@H](C)N3CC(C)(C)F)c(F)c2)C(C)(C)C)cc1` [Example 82, (2S,4R)-1-((2S,10S,11S)-2-(tert-butyl)-14-(3,5-difluoro-4-((1R,3R)-2-(2-fluoro-2-methylpropyl)-3-methyl-2,3,4,9-tetrahydro-1H-pyrido[3,4-b]indol-1-yl)phenoxy)-10,11-dimethyl-4-oxo-6,9,12-trioxa-3-azatetradecanoyl)-4-hydroxy-N-(4-(4-methylthiazol-5-yl)benzyl)pyrrolidine-2-carboxamide]: the IC50 worked out at 0.9 nM.

`Cc1ncsc1-c1ccc(CNC(=O)[C@@H]2C[C@@H](O)CN2C(=O)[C@@H](NC(=O)COCCO[C@H](C)[C@@H](C)OCCOc2cc(F)c([C@@H]3c4[nH]c5ccccc5c4C[C@@H](C)N3CC(C)(C)F)c(F)c2)C(C)(C)C)cc1` [Example 80, (2S,4R)-1-((2S,10R,11R)-2-(tert-butyl)-14-(3,5-difluoro-4-((1R,3R)-2-(2-fluoro-2-methylpropyl)-3-methyl-2,3,4,9-tetrahydro-1H-pyrido[3,4-b]indol-1-yl)phenoxy)-10,11-dimethyl-4-oxo-6,9,12-trioxa-3-azatetradecanoyl)-4-hydroxy-N-(4-(4-methylthiazol-5-yl)benzyl)pyrrolidine-2-carboxamide]: the IC50 amounted to 0.7 nM.

With `CC[C@H](C)[C@H](N)C(=O)O[C@@H]1C[C@@H](C(=O)NCc2ccc(-c3scnc3C)cc2)N(C(=O)[C@@H](NC(=O)COCCOCCOCCOc2cc(F)c([C@@H]3c4[nH]c5ccccc5c4C[C@@H](C)N3CC(C)(C)F)c(F)c2)C(C)(C)C)C1` [Example 99, (3R,5S)-1-((S)-2-(2-(2-(2-(2-(3,5-Difluoro-4-((1R,3R)-2-(2-fluoro-2-methylpropyl)-3-methyl-2,3,4,9-tetrahydro-1H-pyrido[3,4-b]indol-1-yl)phenoxy)ethoxy)ethoxy)ethoxy)acetamido)-3,3-dimethylbutanoyl)-5-((4-(4-methylthiazol-5-yl)benzyl)carbamoyl)pyrrolidin-3-yl L-isoleucinate Formate], the IC50 is 1.2 nM.

In the case of `Cc1ncsc1-c1ccc(CNC(=O)[C@@H]2C[C@@H](O)CN2C(=O)[C@@H](NC(=O)COCc2ccc(OCCOc3cc(F)c([C@@H]4c5[nH]c6ccccc6c5C[C@@H](C)N4CC(C)(C)F)c(F)c3)cc2)C(C)(C)C)cc1` [Example 4, (2S,4R)-1-((S)-2-(2-((4-(2-(3,5-Difluoro-4-((1R,3R)-2-(2-fluoro-2-methylpropyl)-3-methyl-2,3,4,9-tetrahydro-1H-pyrido[3,4-b]indol-1-yl)phenoxy)ethoxy)benzyl)oxy)acetamido)-3,3-dimethylbutanoyl)-4-hydroxy-N-(4-(4-methylthiazol-5-yl)benzyl)pyrrolidine-2-carboxamide], the concentration for half-maximal inhibition (IC50) is 0.8 nM.

Take `Cc1ncsc1-c1ccc(CNC(=O)[C@@H]2C[C@@H](O)CN2C(=O)[C@@H](NC(=O)COCCOCCNC(=O)/C=C/c2cc(F)c([C@@H]3c4[nH]c5ccccc5c4C[C@@H](C)N3CC(C)(C)F)c(F)c2)C(C)(C)C)cc1` [Example 58, (2S,4R)-1-((S,E)-2-(tert-butyl)-15-(3,5-difluoro-4-((1R,3R)-2-(2-fluoro-2-methylpropyl)-3-methyl-2,3,4,9-tetrahydro-1H-pyrido[3,4-b]indol-1-yl)phenyl)-4,13-dioxo-6,9-dioxa-3,124-diazapentadec-4-enoyl)-4-hydroxy-N-(4-(4-methylthiazol-5-yl)benzyl)pyrrolidine-2-carboxamide, Trifluoroacetic Acid]: the half-inhibitory concentration (IC50) was found to be 0.9 nM.

Turning to `Cc1ncsc1-c1ccc(CNC(=O)[C@@H]2C[C@@H](O)CN2C(=O)[C@@H](NC(=O)COCCOCCOCCCNC(=O)c2cc(F)c([C@@H]3c4[nH]c5ccccc5c4C[C@@H](C)N3CC(C)(C)F)c(F)c2)C(C)(C)C)cc1` [Example 84, (2S,4R)-1-((S)-16-(tert-Butyl)-1-(3,5-difluoro-4-((1R,3R)-2-(2-fluoro-2-methylpropyl)-3-methyl-2,3,4,9-tetrahydro-1H-pyrido[3,4-b]indol-1-yl)phenyl)-1,14-dioxo-6,9,12-trioxa-2,15-diazaheptadecan-17-oyl)-4-hydroxy-N-(4-(4-methylthiazol-5-yl)benzyl)pyrrolidine-2-carboxamide], the concentration for half-maximal inhibition (IC50) was 1.3 nM.

Turning to `Cc1ncsc1-c1ccc(CNC(=O)[C@@H]2C[C@@H](O)CN2C(=O)[C@@H](NC(=O)COCCCCCOc2cc(F)c([C@@H]3c4[nH]c5ccccc5c4C[C@@H](C)N3CC3(F)CC3)c(F)c2)C(C)(C)C)cc1` [Example 79, (2S,4R)-1-((S)-2-(2-((5-(3,5-difluoro-4-((1R,3R)-2-((1-fluorocyclopropyl)methyl)-3-methyl-2,3,4,9-tetrahydro-1H-pyrido[3,4-b]indol-1-yl)phenoxy)pentyl)oxy)acetamido)-3,3-dimethylbutanoyl)-4-hydroxy-N-(4-(4-methylthiazol-5-yl)benzyl)pyrrolidine-2-carboxamide], the half-maximal inhibitory concentration (IC50) worked out at 0.9 nM.

Values taken from patent publication US10519152B2, “Compounds and their use in treating cancer” (AstraZeneca AB, priority 2017, dated 2019).
